Results on 34 compounds are retold here after patent US8394825B2, “Compound” (Sterix Limited, priority 2007, dated 2013).

Each structure is given as a SMILES string.

One data set concerns DU145 cells. Description: Antiproliferative assay in DU145 cells, WST-1 cell proliferation assay, 96 hours (GI50). Format: cell-based. Particulars: Homo sapiens, DU-145, 96 hours post-treatment, triplicate. The gist of the method: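 DU145 cells seeded at 5000 cells/well, treated with […] compound or vehicle for 96 h. Viability read by WST-1, expressed as percent of mean control, GI50 derived; triplicate experiments.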
In general terms: Formazan colour is commonly taken as a measure of viable cells.

For the compound `COc1cc2c(cc1O)CCN(Cc1cccc(OC(C)C)c1)C2` [compound 61, 2-(3-Isopropoxybenzyl)-6-hydroxy-7-methoxy-1,2,3,4-tetrahydroisoquinoline], the melting point (commonly the temperature, or range, at which the solid turns liquid) is 143 to 146 °C. In the data set on DU145 cells, the GI50 (commonly the concentration giving 50% growth inhibition) is more than 100 µM.

In turn, `CCOc1cccc(CN2CCc3cc(O)c(OC)cc3C2)c1` [compound 63, 2-(3-Ethoxybenzyl)-6-hydroxy-7-methoxy-1,2,3,4-tetrahydroisoquinoline] returned a melting point of 105 to 106 °C. Further, the concentration for 50% growth inhibition (GI50) in the data set with DU145 cells is more than 100 µM.

Consider `COc1cc2c(cc1O)CCN(Cc1cccc(C#N)c1)C2` [compound 64, 2-(3-Cyanobenzyl)-6-hydroxy-7-methoxy-1,2,3,4-tetrahydroisoquinoline], for which the melting point was 113 to 155 °C. This compound yielded a GI50 in the data set with DU145 cells of more than 100 µM.

On to `COc1cc2c(cc1O)CCN(Cc1ccc(C#N)cc1)C2` [compound 65, 2-(4-Cyanobenzyl)-6-hydroxy-7-methoxy-1,2,3,4-tetrahydroisoquinoline], for which the melting point fell in the range of 165 to 166.5 °C. This compound showed a GI50 in the data set on DU145 cells of more than 100 µM.

On to `COc1cc2c(cc1O)CCN(Cc1cccc([N+](=O)[O-])c1)C2` [compound 66, 6-Hydroxy-7-methoxy-2-(3-nitrobenzyl)-1,2,3,4-tetrahydroisoquinoline], for which the melting point lay in the range of 127 to 128 °C. The concentration for 50% growth inhibition (GI50) with DU145 cells was more than 100 µM.

With `COc1cc2c(cc1O)CCN(Cc1cccc(Cl)c1)C2` [compound 67, 2-(3-Chlorobenzyl)-6-hydroxy-7-methoxy-1,2,3,4-tetrahydroisoquinoline], the melting point was 118 to 119.5 °C. For the same compound, the GI50 with DU145 cells lay within 50 to 100 µM.

`COc1cc2c(cc1O)CCN(Cc1cccc(OC(F)(F)F)c1)C2` [compound 68, 6-Hydroxy-7-methoxy-2-(3-trifluoromethoxybenzyl)-1,2,3,4-tetrahydroisoquinoline] had a melting point of 122 to 124 °C. The compound further registered a concentration for 50% growth inhibition (GI50) in the data set on DU145 cells of 50 to 100 µM.

In turn, `COc1cc2c(cc1O)CCN(Cc1ccccc1O)C2` [compound 69, 2-(2-Hydroxybenzyl)-6-hydroxy-7-methoxy-1,2,3,4-tetrahydroisoquinoline] came in with a melting point of 151.9 to 152.6 °C. The same compound gave a GI50 in the data set on DU145 cells of more than 100 µM.

Compound `COc1cc2c(cc1O)CCN(Cc1cccc(O)c1)C2` [compound 70, 2-(3-Hydroxybenzyl)-7-methoxy-1,2,3,4-tetrahydroisoquinolin-6-ol] showed a melting point of 177 to 178 °C. The compound further showed a GI50 in the data set with DU145 cells of more than 100 µM.

`COc1ccc(C(=O)N2CCc3cc(OCc4ccccc4)c(OC)cc3C2)cc1` [compound 108, 7-Methoxy-2-(4-methoxybenzoyl)-6-benzyloxy-1,2,3,4-tetrahydroisoquinoline] registered a melting point of 126 to 127 °C. The concentration for 50% growth inhibition (GI50) in the data set on DU145 cells was in the range of 10 to 50 µM.

The compound `COc1cc(OC)cc(C(=O)N2CCc3cc(OCc4ccccc4)c(OC)cc3C2)c1` [compound 110, 6-Benzyloxy-2-(3,5-dimethoxybenzoyl)-7-methoxy-1,2,3,4-tetrahydroisoquinoline] returned a melting point of 130 to 131 °C. Also, in the data set on DU145 cells, the GI50 lay within 10 to 50 µM.

`COc1cc2c(cc1O)CCN(C(=O)c1ccccc1OC)C2` [compound 115, 6-Hydroxy-7-methoxy-2-(2-methoxybenzoyl)-1,2,3,4-tetrahydroisoquinoline] showed a melting point of 176 to 177 °C. This compound had a concentration for 50% growth inhibition (GI50) in the data set with DU145 cells of 50 to 100 µM.

The compound `COc1cccc(C(=O)N2CCc3cc(O)c(OC)cc3C2)c1` [compound 116, 6-Hydroxy-7-methoxy-2-(3-methoxybenzoyl)-1,2,3,4-tetrahydroisoquinoline] yielded a melting point of 141 to 142 °C. The compound further had a GI50 in the data set with DU145 cells of 10 to 50 µM.

Turning to `COc1ccc(C(=O)N2CCc3cc(O)c(OC)cc3C2)cc1` [compound 117, 6-Hydroxy-7-methoxy-2-(4-methoxybenzoyl)-1,2,3,4-tetrahydroisoquinoline], the melting point is 173 to 174 °C. In the data set with DU145 cells, this compound registered a concentration for 50% growth inhibition (GI50) of more than 100 µM.

Turning to `COc1cc2c(cc1O)CCN(C(=O)c1ccc(OC)c(OC)c1)C2` [compound 118, 2-(3,4-Dimethoxybenzoyl)-6-hydroxy-7-methoxy-1,2,3,4-tetrahydroisoquinoline], the melting point is 132 to 133 °C. The 50% growth inhibitory concentration (GI50) in the data set with DU145 cells is more than 100 µM.

In turn, `COc1cc2c(cc1O)CCN(C(=O)c1cc(OC)c(OC)c(OC)c1)C2` [compound 120, 6-Hydroxy-7-methoxy-2-(3,4,5-trimethoxybenzoyl)-1,2,3,4-tetrahydroisoquinoline] registered a melting point of 172 to 173 °C. The GI50 in the data set with DU145 cells was less than 10 µM.

In turn, `COc1ccc(C(=O)N2CCc3cc(OCc4ccccc4)c(OC)cc3C2=O)cc1` [compound 128, 6-Benzyloxy-7-methoxy-2-(4-methoxybenzoyl)-3,4-dihydro-2H-isoquinolin-1-one] had a melting point of 151 to 152 °C. Further, the GI50 with DU145 cells is more than 100 µM.

Turning to `COc1cc(OC)cc(C(=O)N2CCc3cc(OCc4ccccc4)c(OC)cc3C2=O)c1` [compound 129, 6-(Benzyloxy)-2-(3,5-dimethoxybenzoyl)-7-methoxy-3,4-dihydro-2H-isoquinolin-1-one], the melting point was in the range of 180 to 181 °C. This compound also displayed a GI50 with DU145 cells of more than 100 µM.

`COc1cc2c(cc1OCc1ccccc1)CCN(C(=O)c1ccccc1OC)C2=O` [compound 130, 6-Benzyloxy-7-methoxy-2-(2-methoxybenzoyl)-3,4-dihydro-2H-isoquinoline-1-one] registered a melting point of 163 to 164 °C. The compound also gave a concentration for 50% growth inhibition (GI50) with DU145 cells of more than 100 µM.

For `COc1ccc(C(=O)N2CCc3cc(OCc4ccccc4)c(OC)cc3C2=O)cc1OC` [compound 133, 6-(Benzyloxy)-7-methoxy-2-(3,4-dimethoxybenzoyl)-3,4-dihydro-2H-isoquinoline-1-one], the melting point is 200 to 201 °C. This compound came in with a GI50 in the data set on DU145 cells of more than 100 µM.

For the compound `COc1cc2c(cc1OCc1ccccc1)CCN(C(=O)c1cc(OC)c(OC)c(OC)c1)C2=O` [compound 134, 6-Benzyloxy-7-methoxy-2-(3,4,5-trimethoxybenzoyl)-3,4-dihydro-2H-isoquinolin-1-one], the melting point was in the range of 195 to 196 °C. The same compound returned a GI50 in the data set on DU145 cells of more than 100 µM.

`COc1cc2c(cc1OCc1ccccc1)CCN(C(=O)c1cccc(C#N)c1)C2=O` [compound 135, 6-Benzyloxy-2-(3-cyanobenzoyl)-7-methoxy-3,4-dihydro-2H-isoquinoline-1-one] gave a melting point of 195 to 196 °C. Further, the concentration for 50% growth inhibition (GI50) in the data set with DU145 cells is more than 100 µM.

Regarding `COc1cc2c(cc1O)CCN(C(=O)c1ccccc1OC)C2=O` [compound 138, 6-Hydroxy-7-methoxy-2-(2-methoxybenzoyl)-3,4-dihydro-2H-isoquinoline-1-one], the melting point was 199 to 200 °C. The same compound displayed a GI50 in the data set with DU145 cells of less than 10 µM.

On to `COc1cccc(C(=O)N2CCc3cc(O)c(OC)cc3C2=O)c1` [compound 139, 6-Hydroxy-7-methoxy-2-(3-methoxybenzoyl)-3,4-dihydro-2H-isoquinoline-1-one], for which the melting point fell in the range of 198 to 199 °C. This compound also showed a GI50 in the data set with DU145 cells of less than 10 µM.

`COc1ccc(C(=O)N2CCc3cc(O)c(OC)cc3C2=O)cc1` [compound 140, 6-Hydroxy-7-methoxy-2-(4-methoxybenzoyl)-3,4-dihydro-2H-isoquinolin-1-one]: the melting point is 224 to 225 °C. Besides, the GI50 in the data set on DU145 cells was more than 100 µM.

The compound `COc1cc(OC)cc(C(=O)N2CCc3cc(O)c(OC)cc3C2=O)c1` [compound 141, 2-(3,5-Dimethoxybenzoyl)-6-hydroxy-7-methoxy-3,4-dihydro-2H-isoquinolin-1-one] yielded a melting point of 198 to 199 °C. For the same compound, in the data set on DU145 cells, the GI50 was less than 10 µM.

Compound `COc1cc2c(cc1O)CCN(C(=O)c1ccc(OC)c(OC)c1)C2=O` [compound 142, 2-(3,4-Dimethoxybenzoyl)-6-hydroxy-7-methoxy-3,4-dihydro-2H-isoquinoline-1-one] gave a melting point of 199 to 200 °C. The compound also had a GI50 in the data set with DU145 cells of less than 10 µM.

Consider `COc1cc2c(cc1O)CCN(C(=O)c1cc(OC)c(OC)c(OC)c1)C2=O` [compound 143, 6-Hydroxy-7-methoxy-2-(3,4,5-trimethoxybenzoyl)-3,4-dihydro-2H-isoquinolin-1-one], for which the melting point lay within 175 to 176 °C. For the same compound, in the data set on DU145 cells, the concentration for 50% growth inhibition (GI50) was less than 10 µM.

With `COc1cc2c(cc1O)CCN(C(=O)c1cccc(C#N)c1)C2=O` [compound 144, 2-(3-Cyanobenzoyl)-6-hydroxy-7-methoxy-3,4-dihydro-2H-isoquinoline-1-one], the melting point was 197 to 198 °C. Further, the concentration for 50% growth inhibition (GI50) in the data set on DU145 cells lay in the range of 50 to 100 µM.

`COc1cc2c(cc1O)CCN(C(=O)c1ccc(C#N)cc1)C2=O` [compound 145, 2-(4-Cyanobenzoyl)-6-hydroxy-7-methoxy-3,4-dihydro-2H-isoquinoline-1-one] yielded a melting point of 198 to 199 °C. The GI50 in the data set on DU145 cells is more than 100 µM.

`COc1cccc(COc2cc3c(cc2OC)C(=O)N(Cc2cccc(OC)c2)CC3)c1` [compound 155, 7-Methoxy-2-(3-methoxybenzyl)-6-(3-methoxybenzyloxy)-3,4-dihydro-2H-isoquinolin-1-one] had a melting point of 85 to 86 °C. For the same compound, in the data set with DU145 cells, the GI50 is more than 100 µM.

Take `COc1ccccc1COc1cc2c(cc1OC)C(=O)N(Cc1ccccc1OC)CC2` [compound 156, 7-Methoxy-2-(2-methoxybenzyl)-6-(2-methoxybenzyloxy)-3,4-dihydro-2H-isoquinolin-1-one]: the melting point was 133 to 134 °C. For the same compound, in the data set on DU145 cells, the GI50 is more than 100 µM.

`COc1cc(CN2CCc3cc(OCc4ccccc4)c(OC)cc3C2=O)cc(OC)c1` [compound 157, 6-(Benzyloxy)-2-(3,5-dimethoxybenzyl)-7-methoxy-3,4-dihydro-2H-isoquinolin-1-one] gave a melting point of 82 to 83 °C. In addition, the GI50 in the data set with DU145 cells was more than 100 µM.

`COc1cc2c(cc1OCc1ccccc1)CCN(Cc1cc(OC)c(OC)c(OC)c1)C2=O` [compound 158, 6-(benzyloxy)-7-methoxy-2-(3,4,5-trimethoxybenzyl)-3,4-dihydro-2H-isoquinolin-1-one] displayed a melting point of 136 to 137 °C. The GI50 in the data set on DU145 cells is more than 100 µM.
